Experiment [1] deals with Phospho-KIT (Y703) in M07e cells. The experiment is described as follows: Phospho-KIT (Y703) cellular assay in M07e cells. Format: cell-based. The note with it: M-07e; Phospho-KIT (Y703), M07e cells; read-out: M07e Cell IC50. The method, then: Phospho-KIT (Y703) Cellular Assay in M07e Cells
The day prior to assay, M07e cells (DSMZ, catalog #ACC 104) were serum starved. Cells were centrifuged and cell pellet resuspended in OptiMEM (Gibco, catalog #31985062) to a density of 1×10^6-2.5×10^6 cells per mL. Cells were then incubated overnight at 5% CO2 and 37° C. in an appropriately sized flask. On the day of the experiment, an 11 point, half log titration of test compound was pre-dispensed into 96-well round bottom polypropylene plates (Corning, catalog #3365). The serum starved M07e cells were centrifuged and resuspended to a cell density of 1×10^6 cells per mL with DPBS (Gibco, catalog #14190-144). Live/Dead Green Fixable viability dye (Invitrogen, catalog #L34970) was added as 1 μL/1 mL of cell suspension. Cells were then incubated in the dark at 4° C. for 30 min. Cells were washed by centrifugation and resuspension with DPBS+0.5% BSA (Gemini Bio Products, catalog #700110/100, 30% BSA solution). Cells were resuspended, separated into two equal volumes and again centrifuged. Cell pellets were resuspended with OptiMEM™ to a cell density of 1×10^6 cells per mL. Cells were then added to the appropriate compound plate at 100,000 cells per well in 100 μL and mixed. Plates were incubated at 5% CO2 and 37° C. for 50 min. Stem Cell Factor, SCF (R&D Systems, #255-SC/CF) was diluted in OptiMEM to 1 μg/mL and added to all wells as 10 μL for a final concentration of 90.9 ng/mL. Plates were incubated at 5% CO2 and 37° C. for 10 min. Incubation was stopped by addition of 110 μL 4% paraformaldehyde solution in PBS (Life Technologies, catalog #J19943.K2). Plates were incubated at rt for at least 15 min. Plates were then centrifuged and supernatant removed by flicking. Cells were washed once by resuspension in 200 μL DPBS+0.5% BSA, centrifuged, and supernatant removed by flicking. Cells were resuspended in 100 μL 1X Permeabilization buffer (Invitrogen, catalog #88882400) and plates incubated at rt for 30 min. Plates were centrifuged, supernatant removed by flicking, and cells resuspended in 50 μL primary antibody, anti-phospho-c-KIT (Tyr703) (Cell Signaling, catalog #3073), diluted to 1 μg/mL with permeabilization buffer. Plates were incubated at rt for 1 h. Plates were centrifuged, supernatant removed, and cells resuspended with 200 μL DPBS+0.5% BSA. Plates were again centrifuged, supernatant removed by flicking, and cells resuspended in 100 μL secondary antibody, goat anti-rabbit AlexaFluor647 (AF647) (Invitrogen, catalog #A21244) diluted to 1 μg/mL with DPBS+0.5% BSA. Plates were incubated at rt for 30 min. followed by centrifugation, supernatant removal, and cell resuspension with 200 μL DPBS+0.5% BSA. Cells were washed again by centrifugation, supernatant removal, and cell resuspension with 200 μL DPBS+0.5% BSA. Samples were then read by flow cytometry. The Forward: Side scatter plot was gated and that population was gated for live cells based on the Live/Dead Green staining. The geometric mean of AF647 of the live cell population was recorded. Percentage maximum activity in each test well was calculated based on DMSO (100% activity) and positive control treated cell wells (0% activity). The potencies (IC50 values) of test compounds were determined using a standard 4-parameter non-linear regression fit.

In another experiment the target is c-Kit (Homo sapiens (Human), UniProt P10721). Put plainly: Inhibition of c-Kit kinase activity (HTRF KinEASE-TK). It counts as biochemical. The note with it: biochemical, HTRF KinEASE-TK. The procedure, abridged: (§1)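 Recombinant kinases (2 nM CSF1R and c-Kit, 10 nM PDGFRα/β, 2× working) preincubated 1 h with compound in 50 mM HEPES pH 7.4, 5 mM MgCl2 (c-Kit) or 10 mM (others), 2 mM MnCl2; 2× ATP: c-Kit 16 μM, PDGFRα 1 μM, PDGFRβ 40 μM, CSF1R 20 μM. 120 min reaction at rt; TR-FRET 665/620 nm; IC50 by 4-parameter fit.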
Chain of c-Kit (P10721 26-976): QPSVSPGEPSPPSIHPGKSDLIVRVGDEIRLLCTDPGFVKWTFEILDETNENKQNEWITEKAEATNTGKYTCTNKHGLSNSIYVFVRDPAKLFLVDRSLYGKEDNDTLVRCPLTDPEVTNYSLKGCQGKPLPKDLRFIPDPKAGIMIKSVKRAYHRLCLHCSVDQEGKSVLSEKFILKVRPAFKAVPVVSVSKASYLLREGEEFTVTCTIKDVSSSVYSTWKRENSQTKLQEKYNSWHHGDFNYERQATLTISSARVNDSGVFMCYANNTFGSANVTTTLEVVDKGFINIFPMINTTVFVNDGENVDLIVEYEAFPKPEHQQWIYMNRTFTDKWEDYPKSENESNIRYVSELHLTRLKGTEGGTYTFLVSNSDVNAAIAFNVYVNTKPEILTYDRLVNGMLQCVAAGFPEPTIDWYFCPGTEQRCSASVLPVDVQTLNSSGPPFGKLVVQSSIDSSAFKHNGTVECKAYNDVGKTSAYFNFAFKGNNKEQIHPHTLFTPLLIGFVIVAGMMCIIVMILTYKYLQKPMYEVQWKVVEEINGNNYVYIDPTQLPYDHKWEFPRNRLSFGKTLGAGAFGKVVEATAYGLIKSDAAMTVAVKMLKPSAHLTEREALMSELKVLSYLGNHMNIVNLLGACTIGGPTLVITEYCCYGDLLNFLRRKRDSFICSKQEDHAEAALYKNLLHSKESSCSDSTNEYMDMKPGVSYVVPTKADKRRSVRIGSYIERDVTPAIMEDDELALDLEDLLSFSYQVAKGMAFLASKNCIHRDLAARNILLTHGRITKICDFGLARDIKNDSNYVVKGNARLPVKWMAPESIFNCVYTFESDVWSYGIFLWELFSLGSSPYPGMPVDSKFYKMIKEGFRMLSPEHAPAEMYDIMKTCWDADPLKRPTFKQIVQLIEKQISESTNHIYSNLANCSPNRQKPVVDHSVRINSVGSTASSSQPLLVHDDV
In general terms: In TR-FRET formats the signal depends on donor and acceptor labels being close together.

A further experiment concerns the target PDGFRα (Homo sapiens (Human), UniProt P16234). The experiment is described as follows: Inhibition of PDGFRα kinase activity (HTRF KinEASE-TK). The following applies: biochemical, HTRF KinEASE-TK. The procedure, abridged: as §1
The target in a further experiment is CSF1R (Homo sapiens (Human), UniProt P07333). The experiment is described as follows: Inhibition of CSF1R kinase activity (HTRF KinEASE-TK). The following applies: biochemical, HTRF KinEASE-TK. The gist of the method: as §1
Chain of CSF1R (P07333 20-972): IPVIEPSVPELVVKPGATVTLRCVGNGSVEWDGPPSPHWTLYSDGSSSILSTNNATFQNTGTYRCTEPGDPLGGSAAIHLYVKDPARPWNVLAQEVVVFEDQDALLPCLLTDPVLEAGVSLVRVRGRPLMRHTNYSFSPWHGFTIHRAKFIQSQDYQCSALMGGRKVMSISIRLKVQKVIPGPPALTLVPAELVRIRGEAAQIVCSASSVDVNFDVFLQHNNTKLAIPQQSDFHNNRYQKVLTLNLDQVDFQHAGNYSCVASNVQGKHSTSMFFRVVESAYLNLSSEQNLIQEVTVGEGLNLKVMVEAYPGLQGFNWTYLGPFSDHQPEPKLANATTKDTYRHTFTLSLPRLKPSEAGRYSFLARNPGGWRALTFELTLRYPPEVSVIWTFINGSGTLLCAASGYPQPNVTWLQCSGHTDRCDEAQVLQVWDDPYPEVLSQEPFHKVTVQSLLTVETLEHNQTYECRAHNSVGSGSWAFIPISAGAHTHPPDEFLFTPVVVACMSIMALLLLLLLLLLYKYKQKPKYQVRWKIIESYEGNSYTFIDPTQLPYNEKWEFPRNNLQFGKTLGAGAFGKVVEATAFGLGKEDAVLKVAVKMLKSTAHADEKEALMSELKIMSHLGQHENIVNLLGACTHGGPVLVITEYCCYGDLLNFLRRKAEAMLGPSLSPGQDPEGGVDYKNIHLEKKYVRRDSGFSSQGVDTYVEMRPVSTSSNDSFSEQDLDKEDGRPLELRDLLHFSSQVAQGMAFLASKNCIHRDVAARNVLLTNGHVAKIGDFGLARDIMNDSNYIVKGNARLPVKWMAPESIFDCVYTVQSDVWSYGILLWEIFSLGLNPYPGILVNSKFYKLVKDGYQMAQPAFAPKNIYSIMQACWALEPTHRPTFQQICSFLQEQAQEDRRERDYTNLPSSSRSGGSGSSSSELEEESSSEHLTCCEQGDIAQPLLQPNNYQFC
Another experiment concerns the target PDGFRβ (Homo sapiens (Human), UniProt P09619). The experiment is described as follows: Inhibition of PDGFRβ kinase activity (HTRF KinEASE-TK). The following applies: biochemical, HTRF KinEASE-TK. The procedure, abridged:
as §1

Chain of PDGFRα (P16234 24-1089): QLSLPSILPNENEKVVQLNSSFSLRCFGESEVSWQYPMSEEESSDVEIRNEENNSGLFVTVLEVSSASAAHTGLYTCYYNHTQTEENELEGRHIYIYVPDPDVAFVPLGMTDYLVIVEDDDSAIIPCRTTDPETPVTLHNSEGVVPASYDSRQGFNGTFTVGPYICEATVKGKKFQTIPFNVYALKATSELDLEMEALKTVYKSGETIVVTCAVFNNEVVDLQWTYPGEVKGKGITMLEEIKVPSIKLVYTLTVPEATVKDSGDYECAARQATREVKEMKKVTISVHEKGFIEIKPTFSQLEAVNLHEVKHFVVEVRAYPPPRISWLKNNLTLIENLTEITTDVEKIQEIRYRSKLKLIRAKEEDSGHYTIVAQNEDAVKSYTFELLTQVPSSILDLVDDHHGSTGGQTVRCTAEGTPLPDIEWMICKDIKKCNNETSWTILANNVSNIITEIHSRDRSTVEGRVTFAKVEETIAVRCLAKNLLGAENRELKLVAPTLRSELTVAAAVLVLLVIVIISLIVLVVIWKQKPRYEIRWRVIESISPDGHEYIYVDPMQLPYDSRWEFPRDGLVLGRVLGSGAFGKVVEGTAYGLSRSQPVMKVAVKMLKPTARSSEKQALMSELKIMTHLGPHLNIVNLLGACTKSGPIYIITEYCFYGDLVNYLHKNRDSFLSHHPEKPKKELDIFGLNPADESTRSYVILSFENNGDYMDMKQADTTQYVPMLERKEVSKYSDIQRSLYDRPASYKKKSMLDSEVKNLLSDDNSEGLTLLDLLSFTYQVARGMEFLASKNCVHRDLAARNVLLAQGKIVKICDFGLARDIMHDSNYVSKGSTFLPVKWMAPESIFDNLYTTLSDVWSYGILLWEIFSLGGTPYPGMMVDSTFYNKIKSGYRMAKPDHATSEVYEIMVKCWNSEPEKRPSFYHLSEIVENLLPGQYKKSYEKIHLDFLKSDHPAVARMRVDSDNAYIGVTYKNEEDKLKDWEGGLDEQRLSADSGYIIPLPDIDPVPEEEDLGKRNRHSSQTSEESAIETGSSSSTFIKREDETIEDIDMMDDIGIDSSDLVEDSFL
Chain of PDGFRβ (P09619 33-1106): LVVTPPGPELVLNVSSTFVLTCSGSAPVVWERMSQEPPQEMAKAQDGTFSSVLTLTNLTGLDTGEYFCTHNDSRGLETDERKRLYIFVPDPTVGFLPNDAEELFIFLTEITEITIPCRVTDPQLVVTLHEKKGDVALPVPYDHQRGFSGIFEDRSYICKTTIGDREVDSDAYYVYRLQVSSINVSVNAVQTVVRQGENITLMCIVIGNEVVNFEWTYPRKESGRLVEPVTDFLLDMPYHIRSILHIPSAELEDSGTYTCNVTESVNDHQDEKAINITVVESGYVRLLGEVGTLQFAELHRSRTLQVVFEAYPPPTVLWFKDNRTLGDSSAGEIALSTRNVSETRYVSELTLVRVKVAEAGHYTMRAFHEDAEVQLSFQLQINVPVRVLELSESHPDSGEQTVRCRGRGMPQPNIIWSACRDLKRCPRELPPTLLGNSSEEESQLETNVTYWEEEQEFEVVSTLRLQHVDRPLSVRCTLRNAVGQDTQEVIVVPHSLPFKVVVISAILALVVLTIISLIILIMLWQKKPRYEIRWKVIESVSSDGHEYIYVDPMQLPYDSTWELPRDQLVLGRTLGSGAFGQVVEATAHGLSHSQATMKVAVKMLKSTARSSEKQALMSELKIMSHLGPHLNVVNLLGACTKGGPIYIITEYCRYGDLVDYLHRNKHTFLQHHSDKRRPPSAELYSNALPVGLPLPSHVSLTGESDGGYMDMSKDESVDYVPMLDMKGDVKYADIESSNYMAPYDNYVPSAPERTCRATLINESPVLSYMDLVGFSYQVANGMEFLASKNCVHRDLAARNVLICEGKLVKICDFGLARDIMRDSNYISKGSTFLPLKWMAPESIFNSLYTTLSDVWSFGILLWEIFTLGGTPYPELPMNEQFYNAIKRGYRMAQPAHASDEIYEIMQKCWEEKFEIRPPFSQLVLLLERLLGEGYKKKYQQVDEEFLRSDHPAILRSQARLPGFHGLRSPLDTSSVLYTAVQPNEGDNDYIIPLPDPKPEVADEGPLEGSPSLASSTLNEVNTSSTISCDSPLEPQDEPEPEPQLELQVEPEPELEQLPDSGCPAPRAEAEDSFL

Usually IC50 stands for the concentration at which inhibition is half-maximal. As for `Cc1ncc(C(=O)Nc2cc(C(=O)NCc3cccnc3)c(F)cc2C)s1` [Example 12, N-(4-Fluoro-2-methyl-5-((pyridin-3-ylmethyl)carbamoyl)phenyl)-2-methylthiazole-5-carboxamide], the IC50 (in experiment [1]; against c-Kit) was 0.1 to 1 µM in each case.
Regarding `Cc1ncc(C(=O)Nc2cc(C(=O)Nc3ccc(C(F)F)nc3)c(F)cc2C)s1` [Example 54, N-[5-[[6-(difluoromethyl)pyridin-3-yl]carbamoyl]-4-fluoro-2-methylphenyl]-2-methyl-1,3-thiazole-5-carboxamide], the 50% inhibitory concentration (IC50) (in experiment [1]; against c-Kit) was under 0.1 µM throughout.
For `Nc1ncc(C(=O)Nc2cc(C(=O)NC3CC3)c(F)cc2Cl)s1` [Example 200, 2-Amino-N-[2-chloro-5-(cyclopropylcarbamoyl)-4-fluorophenyl]-1,3-thiazole-5-carboxamide], the IC50 was 0.1 to 1 µM on PDGFRα, over 1 µM against CSF1R, over 1 µM at PDGFRβ and under 0.1 µM on c-Kit.
With `COc1ccc(NC(=O)c2cc(NC(=O)c3cnc(N)s3)c(F)cc2F)nc1` [Example 211, 2-Amino-N-[2,4-difluoro-5-[(5-methoxypyridin-2-yl)carbamoyl]phenyl]-1,3-thiazole-5-carboxamide], the IC50 against PDGFRα is over 1 µM; at CSF1R it was over 1 µM; against PDGFRβ it was over 1 µM; against c-Kit, under 0.1 µM.
Regarding `Cc1cc(F)c(NC(=O)c2cnc(N)s2)cc1C(=O)Nc1ccc(OC2CC2)cn1` [Example 223, 2-Amino-N-[5-[(5-cyclopropyloxypyridin-2-yl)carbamoyl]-2-fluoro-4-methylphenyl]-1,3-thiazole-5-carboxamide], the half-maximal inhibitory concentration (IC50) at PDGFRα is over 1 µM; against CSF1R, over 1 µM; against PDGFRβ, over 1 µM; against c-Kit it was 0.1 to 1 µM.
As for `Cc1cc(Cl)c(C(=O)Nc2ccc(OC3CC3)cn2)cc1NC(=O)c1cnc(N)s1` [Example 224, 2-Amino-N-[4-chloro-5-[(5-cyclopropyloxypyridin-2-yl)carbamoyl]-2-methylphenyl]-1,3-thiazole-5-carboxamide], the IC50 against PDGFRα was over 1 µM; at CSF1R, over 1 µM; at PDGFRβ, 0.1 to 1 µM; against c-Kit it was under 0.1 µM.
`Cc1cc(F)c(C(=O)Nc2ccc(C(F)C(F)(F)F)cn2)cc1NC(=O)c1cnc(N)s1` (stereo not shown) [Example 225, 2-Amino-N-[4-fluoro-2-methyl-5-[[5-(1,2,2,2-tetrafluoroethyl)pyridin-2-yl]carbamoyl]phenyl]-1,3-thiazole-5-carboxamide]: the IC50 on PDGFRα is 0.1 to 1 µM; against CSF1R it was 0.1 to 1 µM; against PDGFRβ, under 0.1 µM; against c-Kit, under 0.1 µM.
Consider `COc1ccc(NC(=O)c2cc(NC(=O)c3cnc(N)s3)c(C)cc2F)c(F)c1` [Example 228, 2-Amino-N-[4-fluoro-5-[(2-fluoro-4-methoxyphenyl)carbamoyl]-2-methylphenyl]-1,3-thiazole-5-carboxamide], for which the IC50 against PDGFRα was 0.1 to 1 µM; at CSF1R, 0.1 to 1 µM; against PDGFRβ, 0.1 to 1 µM; at c-Kit, under 0.1 µM.
Regarding `Cc1cc(F)c(C(=O)Nc2cccc(F)c2)cc1NC(=O)c1cnc(N)s1` [Example 232, 2-Amino-N-[4-fluoro-5-[(3-fluorophenyl)carbamoyl]-2-methylphenyl]-1,3-thiazole-5-carboxamide], the IC50 is over 1 µM at PDGFRα, 0.1 to 1 µM against CSF1R, over 1 µM against PDGFRβ and under 0.1 µM against c-Kit.
As to `Cc1cc(F)c(C(=O)Nc2ccccc2F)cc1NC(=O)c1cnc(N)s1` [Example 234, 2-Amino-N-[4-fluoro-5-[(2-fluorophenyl)carbamoyl]-2-methylphenyl]-1,3-thiazole-5-carboxamide], the IC50 against PDGFRα was over 1 µM; at CSF1R it was over 1 µM; on PDGFRβ, over 1 µM; against c-Kit, under 0.1 µM.
`Cc1cc(F)c(C(=O)Nc2ccc(OC3CC3)cn2)cc1NC(=O)c1cnc(NCC(F)F)s1` [Example 235, N-[5-[(5-cyclopropyloxypyridin-2-yl)carbamoyl]-4-fluoro-2-methylphenyl]-2-(2,2-difluoroethylamino)-1,3-thiazole-5-carboxamide]: the IC50 on PDGFRα was over 1 µM; on CSF1R, over 1 µM; at PDGFRβ it was 0.1 to 1 µM; against c-Kit it was under 0.1 µM.
As for `CCc1cc(F)c(C(=O)Nc2ccc(OC3CC3)cn2)cc1NC(=O)c1cnc(N)s1` [Example 237, 2-Amino-N-[5-[(5-cyclopropyloxypyridin-2-yl)carbamoyl]-2-ethyl-4-fluorophenyl]-1,3-thiazole-5-carboxamide], the IC50 on PDGFRα was over 1 µM; against CSF1R, over 1 µM; against PDGFRβ, over 1 µM; against c-Kit, 0.1 to 1 µM.
`Cc1c(F)cc(C(=O)Nc2ccc(OC3CC3)cn2)cc1NC(=O)c1cnc(N)s1` [Example 243, 2-Amino-N-[5-[(5-cyclopropyloxypyridin-2-yl)carbamoyl]-3-fluoro-2-methylphenyl]-1,3-thiazole-5-carboxamide]: the IC50 at PDGFRα, against CSF1R, at PDGFRβ and against c-Kit was under 0.1 µM throughout.
In the case of `Cc1cc(F)c(C(=O)Nc2ccc(CN3CCN(C)CC3)cn2)cc1NC(=O)c1cnc(N)s1` [Example 247, 2-Amino-N-[4-fluoro-2-methyl-5-[[5-[(4-methylpiperazin-1-yl)methyl]pyridin-2-yl]carbamoyl]phenyl]-1,3-thiazole-5-carboxamide], the IC50 against PDGFRα is over 1 µM; against CSF1R, 0.1 to 1 µM; against PDGFRβ, 0.1 to 1 µM; against c-Kit, under 0.1 µM.
`Cc1cc(F)c(C(=O)Nc2ccc(CN3CCOCC3)cn2)cc1NC(=O)c1cnc(N)s1` [Example 248, 2-Amino-N-[4-fluoro-2-methyl-5-[[5-(morpholin-4-ylmethyl)pyridin-2-yl]carbamoyl]phenyl]-1,3-thiazole-5-carboxamide]: the half-maximal inhibitory concentration (IC50) was over 1 µM on PDGFRα, over 1 µM against CSF1R, over 1 µM against PDGFRβ and under 0.1 µM against c-Kit.
For `COCCOc1ccc(NC(=O)c2cc(NC(=O)c3cnc(N)s3)c(C)cc2F)nc1` [Example 252, 2-Amino-N-[4-fluoro-5-[[5-(2-methoxyethoxy)pyridin-2-yl]carbamoyl]-2-methylphenyl]-1,3-thiazole-5-carboxamide], the IC50 on PDGFRα was over 1 µM; on CSF1R it was over 1 µM; against PDGFRβ, over 1 µM; against c-Kit it was under 0.1 µM.
In the case of `Cc1cc(F)c(C(=O)NCc2ccn(C(C)C)n2)cc1NC(=O)c1cnc(N)s1` [Example 253, 2-Amino-N-[4-fluoro-2-methyl-5-[(1-propan-2-ylpyrazol-3-yl)methylcarbamoyl]phenyl]-1,3-thiazole-5-carboxamide], the IC50 on PDGFRα was 0.1 to 1 µM; at CSF1R, over 1 µM; against PDGFRβ it was 0.1 to 1 µM; on c-Kit, under 0.1 µM.
